The nature of assay [1]: A375 melanoma cell viability loss, dose response, counter-screen for MITF inhibitor project, CellTiter-Glo luminescence, dry powder, set 4 (AID 624364).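 Note: A375 melanoma cells are MITF independent so this is a counter screen.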 Format: functional, cell-based. To be noted: A-375. For orientation: The purpose of a counterscreen is to sort out artefacts and off-target activity.
In another assay the target is Nonstructural protein 1 (Influenza A virus, UniProt Q194T2). Format: functional, Influenza A virus (A/California/07/2009(H1N1)).
For assay [2], the target named is T1, Histone-lysine N-methyltransferase NSD2 (Homo sapiens, UniProt O96028).
T1 sequence (O96028 whole entry): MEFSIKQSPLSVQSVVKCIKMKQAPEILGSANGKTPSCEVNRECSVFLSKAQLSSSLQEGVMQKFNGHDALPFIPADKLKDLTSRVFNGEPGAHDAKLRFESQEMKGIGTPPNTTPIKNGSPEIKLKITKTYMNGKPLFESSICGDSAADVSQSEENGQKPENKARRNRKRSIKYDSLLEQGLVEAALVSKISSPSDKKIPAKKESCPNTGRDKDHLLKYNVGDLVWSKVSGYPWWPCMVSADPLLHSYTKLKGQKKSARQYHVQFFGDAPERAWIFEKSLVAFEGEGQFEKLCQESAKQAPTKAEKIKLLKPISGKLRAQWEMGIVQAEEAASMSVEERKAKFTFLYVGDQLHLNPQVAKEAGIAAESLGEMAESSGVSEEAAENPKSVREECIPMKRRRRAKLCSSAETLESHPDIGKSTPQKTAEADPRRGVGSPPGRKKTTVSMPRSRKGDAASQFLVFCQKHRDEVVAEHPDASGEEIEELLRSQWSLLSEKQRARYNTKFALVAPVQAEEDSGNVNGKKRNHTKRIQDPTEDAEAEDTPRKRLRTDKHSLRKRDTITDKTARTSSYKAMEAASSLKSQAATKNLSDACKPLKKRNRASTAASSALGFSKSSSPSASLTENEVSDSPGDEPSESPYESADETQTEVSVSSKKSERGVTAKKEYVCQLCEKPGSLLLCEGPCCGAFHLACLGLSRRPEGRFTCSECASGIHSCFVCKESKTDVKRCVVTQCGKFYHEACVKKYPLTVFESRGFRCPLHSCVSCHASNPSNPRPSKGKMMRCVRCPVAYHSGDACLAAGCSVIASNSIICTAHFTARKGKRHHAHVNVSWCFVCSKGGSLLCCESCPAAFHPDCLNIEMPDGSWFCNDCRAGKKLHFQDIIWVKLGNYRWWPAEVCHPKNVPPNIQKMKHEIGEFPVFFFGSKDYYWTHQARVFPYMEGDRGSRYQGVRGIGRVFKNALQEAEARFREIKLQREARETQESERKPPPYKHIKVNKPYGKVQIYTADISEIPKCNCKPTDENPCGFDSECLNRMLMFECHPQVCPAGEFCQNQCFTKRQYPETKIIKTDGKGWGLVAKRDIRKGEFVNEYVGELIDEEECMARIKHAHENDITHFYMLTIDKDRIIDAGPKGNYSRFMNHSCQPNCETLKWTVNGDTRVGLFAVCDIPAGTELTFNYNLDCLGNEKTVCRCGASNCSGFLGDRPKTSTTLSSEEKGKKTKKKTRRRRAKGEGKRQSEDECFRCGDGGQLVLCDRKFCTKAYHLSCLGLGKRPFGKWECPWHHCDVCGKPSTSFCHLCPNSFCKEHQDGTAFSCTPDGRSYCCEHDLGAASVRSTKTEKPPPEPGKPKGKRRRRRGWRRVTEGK
Format: biochemical.

Assay [3] can be described thus: A375 melanoma cell cytotoxicity, dose response, counter-screen for MITF inhibitor project, CellTiter-Glo luminescence, dry powder, set 2 (AID 624489).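 Note: actives are compounds lowering A375 viability meaning general cytotoxicity.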 In kind it is functional, cell-based. To be noted: A-375.
The next assay has as its target T2, Caspase-7 (Homo sapiens, UniProt P55210).
T2 sequence (P55210 whole entry): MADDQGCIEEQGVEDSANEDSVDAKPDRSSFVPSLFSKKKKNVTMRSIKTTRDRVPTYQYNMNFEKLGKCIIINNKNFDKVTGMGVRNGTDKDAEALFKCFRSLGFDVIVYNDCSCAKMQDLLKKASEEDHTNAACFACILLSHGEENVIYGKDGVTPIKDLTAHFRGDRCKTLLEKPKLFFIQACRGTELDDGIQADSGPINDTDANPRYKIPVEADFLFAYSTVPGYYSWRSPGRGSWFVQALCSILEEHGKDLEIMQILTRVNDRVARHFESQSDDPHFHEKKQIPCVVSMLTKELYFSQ
The assay is described as follows: human caspase-7 inhibitors, dose response, selectivity assay for caspase-6 inhibitor project, biochemical, DEVD-R110 fluorescence, cherry-pick (AID 743295). Format: […].

The target in another assay is Phospholipase A2 (Homo sapiens, UniProt P04054). In kind it is functional.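 Note: confirmatory dose-response counterscreen on phospholipase A2, testing hits that came from an ultra-high-throughput screen for ATG4B inhibitors.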
A further assay concerns the target T3, Caspase-6 (Homo sapiens, UniProt P55212).
T3 sequence (P55212 whole entry): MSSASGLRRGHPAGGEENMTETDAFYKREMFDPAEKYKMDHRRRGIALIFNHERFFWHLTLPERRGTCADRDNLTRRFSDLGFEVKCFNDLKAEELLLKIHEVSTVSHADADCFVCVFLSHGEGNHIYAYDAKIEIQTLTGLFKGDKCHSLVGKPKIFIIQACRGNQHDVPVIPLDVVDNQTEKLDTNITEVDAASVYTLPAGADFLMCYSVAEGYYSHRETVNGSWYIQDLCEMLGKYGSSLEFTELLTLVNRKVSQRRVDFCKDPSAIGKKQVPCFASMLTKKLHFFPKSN
The assay can be described thus: human caspase-6 inhibitors, dose response, biochemical, VEID-R110 fluorescence, cherry-pick (AID 720632).

Another assay has as its target T4, Caspase-3 (Homo sapiens, UniProt P42574).
T4 sequence (P42574 whole entry): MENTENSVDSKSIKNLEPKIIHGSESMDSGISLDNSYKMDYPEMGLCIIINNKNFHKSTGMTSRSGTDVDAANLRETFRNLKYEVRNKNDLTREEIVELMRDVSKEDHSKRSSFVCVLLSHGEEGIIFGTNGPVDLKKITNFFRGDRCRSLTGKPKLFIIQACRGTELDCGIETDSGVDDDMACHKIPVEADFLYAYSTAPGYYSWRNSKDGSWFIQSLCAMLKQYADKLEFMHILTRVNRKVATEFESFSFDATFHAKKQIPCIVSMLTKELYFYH
The assay is described as follows: caspase-3 enzyme inhibitors, selectivity check, dose response, selectivity assay for caspase-6 allosteric inhibitor project, biochemical, fluorescence, cherry-picked samples (AID 743291).

In the next assay the target is T5, Cysteine protease ATG4B (Homo sapiens, UniProt Q9Y4P1).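 Note: Fluorescence-based dose-response confirmation assay measuring inhibition of ATG4B activity.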
T5 sequence (Q9Y4P1 whole entry): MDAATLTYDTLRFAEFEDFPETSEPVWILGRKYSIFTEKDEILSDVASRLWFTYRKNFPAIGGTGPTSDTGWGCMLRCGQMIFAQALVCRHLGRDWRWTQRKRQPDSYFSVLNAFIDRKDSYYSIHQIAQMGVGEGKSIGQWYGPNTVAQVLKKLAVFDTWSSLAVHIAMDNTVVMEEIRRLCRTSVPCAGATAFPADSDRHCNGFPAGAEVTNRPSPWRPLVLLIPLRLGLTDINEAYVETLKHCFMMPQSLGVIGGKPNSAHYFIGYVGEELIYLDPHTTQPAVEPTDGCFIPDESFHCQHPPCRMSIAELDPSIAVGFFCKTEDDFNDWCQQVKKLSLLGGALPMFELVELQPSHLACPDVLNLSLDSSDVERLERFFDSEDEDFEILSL
Format: functional.

Assay [4] concerns the target T6, Carboxy-terminal domain RNA polymerase II polypeptide A small phosphatase 1 (Homo sapiens, UniProt Q9GZU7).
T6 sequence (Q9GZU7 whole entry): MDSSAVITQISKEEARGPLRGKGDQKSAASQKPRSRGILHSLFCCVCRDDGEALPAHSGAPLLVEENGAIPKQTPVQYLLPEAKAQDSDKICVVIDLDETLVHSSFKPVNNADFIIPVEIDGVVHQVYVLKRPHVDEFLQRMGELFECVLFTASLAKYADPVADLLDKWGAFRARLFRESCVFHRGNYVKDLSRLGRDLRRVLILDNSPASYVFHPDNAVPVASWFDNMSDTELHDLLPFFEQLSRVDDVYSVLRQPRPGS
The assay is described as follows: inhibitors of CTDSP1, concentration-response testing, biochemical assay, absorbance-based, actives from ultra-high-throughput screening (AID 540297). In kind it is functional.

A further assay deals with Caspase-8 (Homo sapiens, UniProt Q14790). The assay can be described thus: caspase-8 inhibition counter-screen, dose response, selectivity assay for caspase-6 inhibitor project, biochemical, Z-IETD-R110 fluorescence, cherry-picked samples (AID 743294).
Assay [5] can be described thus: HEK293 Cytotoxicity Assay Measured in Cell-Based System Using Plate Reader - 7071-01_Inhibitor_Dose_CherryPick_Activity_Set2. Format: functional.
For the next assay, the system named is HEK293. The assay is described as follows: HEK293T cell cytotoxicity, dose response, cytotoxicity control, ATP luminescence, cherry-pick samples (AID 687005).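 Note: cells exposed to compound for 48 hours.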 To be noted: Homo sapiens. Format: functional, cell-based.
The nature of assay [6]: TRPM1 promoter luciferase reporter signal decrease, dose response, MITF inhibitor project, cell-based, SK-MEL-5, dry powder, set 8 (AID 624430). Format: functional. A general note: A reporter such as luciferase makes a cellular process visible.
A short description of assay [7]: MITF Orthogonal Assay: SK-MEL-5 CTG Assay Measured in Cell-Based System Using Plate Reader - 2084-02_Inhibitor_Dose_DryPowder_Activity_Set7. In kind it is functional.
Assay [8] in a line: MITF: Counter assay: A375 proliferation Measured in Cell-Based System Using Plate Reader - 2084-03_Inhibitor_Dose_DryPowder_Activity_Set8. Format: functional. As to conditions: A-375.

Usually AC50 stands for the concentration at which the activity in the assay is half-maximal. As usually defined, the IC50 is the concentration that inhibits the measured activity by half.

Molecules are shown by their SMILES. Activity calls are given as the source filed them.

Caspase-8, sequence (Q14790 217-374 limits assumed): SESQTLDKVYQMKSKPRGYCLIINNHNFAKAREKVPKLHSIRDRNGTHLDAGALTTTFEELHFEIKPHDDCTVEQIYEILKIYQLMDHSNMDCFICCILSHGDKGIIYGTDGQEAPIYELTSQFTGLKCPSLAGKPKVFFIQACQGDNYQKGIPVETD
Caspase-8, sequence (Q14790 385-479 limits assumed): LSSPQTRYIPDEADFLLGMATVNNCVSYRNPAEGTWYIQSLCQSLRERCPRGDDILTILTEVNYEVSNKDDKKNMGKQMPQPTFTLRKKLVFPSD
Nonstructural protein 1, sequence (Q194T2 whole entry): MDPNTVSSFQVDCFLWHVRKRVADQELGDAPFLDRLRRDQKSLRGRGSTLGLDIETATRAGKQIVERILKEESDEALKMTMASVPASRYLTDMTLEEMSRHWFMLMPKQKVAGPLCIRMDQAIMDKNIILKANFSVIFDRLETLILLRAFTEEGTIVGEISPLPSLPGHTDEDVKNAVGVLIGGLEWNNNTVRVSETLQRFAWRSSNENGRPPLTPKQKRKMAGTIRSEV
Phospholipase A2, sequence (P04054 whole entry): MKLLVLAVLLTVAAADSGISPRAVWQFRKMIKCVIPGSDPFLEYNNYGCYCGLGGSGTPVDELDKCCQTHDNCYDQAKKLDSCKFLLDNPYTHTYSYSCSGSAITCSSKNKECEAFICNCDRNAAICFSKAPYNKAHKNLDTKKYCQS

Turning to `O=C1C(NS(=O)(=O)c2ccc(Br)cc2)=C(N2CCCCC2)C(=O)c2ccccc21`, the values for the AC50 in assay [1], in [2] and in assay [3] were > 70 µM (inactive), 6.22 µM (active) and > 70 µM (inactive), respectively. Besides, on Nonstructural protein 1, the IC50 is 14.5 µM (active).

Consider `O=c1oc(-c2ccccc2)nc2sc3c(c12)CCC3`, for which the AC50 was > 70 µM (inactive) at Caspase-7, 0.44 µM (active) on Caspase-6, 38.7 µM (active) on Caspase-3 and 43.9 µM (active) at Caspase-8. Besides, the concentration for half-maximal inhibition (IC50) is 1.95 µM (active) on Phospholipase A2, 5.65 µM (active) on Cysteine protease ATG4B and 9.39 µM (active) in assay [4].

For `C[C@@H]1CN([C@H](C)CO)C(=O)c2cccc(NC(=O)c3ccncc3)c2O[C@H]1CN(C)C(=O)Nc1ccc(C(F)(F)F)cc1`, the half-maximal activity concentration (AC50) (in assay [5]; in the assay on HEK293) was 27.7 µM (active) each time.

Consider `CC(C)N1CCN(C2=C(Nc3ccc(Cl)cc3)C(=O)c3ccccc3C2=O)CC1`, for which the AC50 in [6] is 2 µM (active); in [7] it was 10.5 µM (active); in assay [8], 54.7 µM (active).

The values are drawn from ChEMBL document CHEMBL1201862, “PubChem BioAssay data set” (2004).
